Measurements published in US20240122990A1, “COMPOSITIONS AND METHODS FOR CARDIOMYOCYTE TRANSPLANTATION” (UNIVERSITY OF WASHINGTON, priority 2021, published 2024).

Columns and labels:
[1] = system: riPSC-CM cardiomyocyte grafts; test: Allogeneic rhesus iPSC-CM transplantation into MHC-mismatched rhesus recipients, histopathological immune rejection of the graft; assay type: in vivo, rhesus macaque (Macaca mulatta); settings: low-dose subcutaneous TAC alone, trough 5-10 ng/mL; 8 weeks post-transplant; 200×10^6 riPSC-CMs
From the text: To identify a minimal, steroid-sparing immunosuppression regimen for first-in-human allogeneic transplantation, a non-human primate (NHP) model was developed where rhesus iPSC-CM are transplanted into normal or infarcted hearts of MHC-mismatched recipients. Allogeneic iPSCs derived from rhesus macaque (Macaca mulatta) were differentiated into a highly enriched population of cardiomyocytes (riPSC-CMs). 200×10^6 riPSC-CMs were transplanted into 11 MHC-mismatched rhesus recipients. The primary study endpoint was the degree of histopathological immune rejection. […] Subsequent studies focused on 8-week engraftment, with promising regimens studied further out to 16 weeks.

[2] = system: T-cell activation; settings: relative to abatacept; cited from earlier work

Compound	degree of histopathological immune rejection of the graft [1]	increase in the ability to inhibit T-cell activation in vitro compared to abatacept [2] [fold]
C=CC[C@@H]1/C=C(\C)C[C@H](C)C[C@H](OC)[C@H]2O[C@@](O)(C(=O)C(=O)N3CCCC[C@H]3C(=O)O[C@H](/C(C)=C/[C@@H]3CC[C@@H](O)[C@H](OC)C3)[C@H](C)[C@@H](O)CC1=O)[C@H](C)C[C@@H]2OC [tacrolimus]	moderate to severe rejection	
Belatacept: derivative of abatacept comprising two amino acid alterations in the CD80/86 binding portion		10
